ChEMBL document CHEMBL3046570, “Synthesis, structure characterization, and biological evaluation of some new 1,2,3-benzotriazole derivatives” (2010)
Calls of active or inactive are those of the source. No cut-off for these calls is given here.

Tests used:
4T1 [1] = test: Cytotoxicity against Mus musculus (mouse) 4T1 cells assessed as decrease in cell viability at 0.2 mM by MTT assay; type: functional, cell-based; details: TDE = time-dependent effect
4T1 [2] = test: Cytotoxicity against Mus musculus (mouse) 4T1 cells assessed as cell survival at 0.2 mM after 48 hr by MTT assay relative to control; type: functional; details: 4T1, 48 h, read-out: Survival
4T1 [3] = test: Cytotoxicity against Mus musculus (mouse) 4T1 cells assessed as cell survival at 0.2 mM after 24 hr by MTT assay relative to control; type: functional; details: 4T1, 24 h, read-out: Survival
4T1 [4] = test: Cytotoxicity against Mus musculus (mouse) 4T1 cells assessed as decrease in cell viability after 24 to 72 hr by MTT assay; type: functional, cell-based
4T1 [5] = test: Cytotoxicity against Mus musculus (mouse) 4T1 cells assessed as cell survival at 0.2 mM after 72 hr by MTT assay relative to control; type: functional; details: 4T1, 72 h, read-out: Survival
Mycosphaerella arachidis = test: Fungicidal activity against Mycosphaerella arachidis assessed as inhibition of mycelium formation at 50 ug/ml after 72 hr (reference value: 0.005%); type: functional
Homo sapiens = organism: Homo sapiens; test: Cytotoxicity against Homo sapiens (human) HEP7402 cells assessed as decrease in cell viability at 0.05 to 0.2 mM after 24 to 72 hr by MTT assay; type: functional, cell-based

## O=C(OC(Cn1nnc2ccccc21)C(=O)c1ccc(Cl)cc1)c1cccnc1 (stereo unspecified)
4T1 [1]
  Activity: tde
4T1 [2]
  viability at 200 µM: 45%
4T1 [3]
  viability at 200 µM: 52.2%
4T1 [4]
  Activity: Dose-dependent effect
4T1 [5]
  viability at 200 µM: 40.3%
Mycosphaerella arachidis
  inhibition at 50 µg/mL: 18.8%

## O=C(OC(Cn1nnc2ccccc21)C(=O)c1ccc(Cl)cc1Cl)c1cccnc1 (stereo unspecified)
Mycosphaerella arachidis
  inhibition at 50 µg/mL: 31.3%

## O=C(OC(Cn1nnc2ccccc21)C(=O)c1ccccc1)c1ccncc1 (stereo unspecified)
Mycosphaerella arachidis
  inhibition at 50 µg/mL: 13%

## O=C(OC(Cn1nnc2ccccc21)C(=O)c1ccccc1)c1cccnc1 (stereo unspecified)
Mycosphaerella arachidis
  inhibition at 50 µg/mL: 15%

## Cc1ccc(C(=O)C(Cn2nnc3ccccc32)OC(=O)c2cccnc2)cc1 (stereo unspecified)
Homo sapiens
  Activity: Active
Mycosphaerella arachidis
  inhibition at 50 µg/mL: 0%
